From publication PMC6151435, “Bioactivity In Vitro of Quercetin Glycoside Obtained in Beauveria bassiana Culture and Its Interaction with Liposome Membranes” (Molecules : A Journal of Synthetic Chemistry and Natural …, 2017)
Where two headings read alike, the source gives them in different places.

Legend:
[1] = Fluorescence measurements with MC540, TMA-DPH and DPH probes in liposome membranes; conditions: concentration 1–10 μM
Experimental: Small unilamellar liposomes (SUV) consisted of phosphatidylcholine (egg-PC) were prepared in accordance with the methodology described by Gabrielska and Oszmiański. The lipids were dissolved in chloroform (100 mg/mL), evaporated to dryness under nitrogen and under vacuum for another 60 min. Subsequently, a phosphate buffer […] of pH 7.4 was added and liposomes were formed by mechanical shaking. Then SUVs were formed using a 20 kHz sonicator for 15 min. During sonication the samples were thermostated at 0–2 °C. In the study, PC liposomes at a concentration of 0.1 mg/mL in phosphate buffer (pH 7.4) were used. Liposomes prepared according to the presented-above procedure were used to determine the antioxidative activity and in fluorometric studies.
The Q 7-MeGlu and Q effect on the hydrophilic and hydrophobic properties of the membrane was determined using the fluorometric method applying the MC540, TMA-DPH and DPH fluorescence probes according to the procedure described by Strugała et al.. Merocyanine 540 (MC540) is a probe that partitions into the membrane and orients parallel to the glycerol backbones of the lipids. The fluorescence intensity of MC540 emission was determined and expressed as relative intensity change in relation to control as a function of studied compounds concentration. The TMA-DPH and DPH probes are supposed to distribute in the hydrophobic part of the bilayer. All the fluorescent probes were used at 1 μM concentration. The DPH and TMA-DPH stock solutions were prepared in DMF, while the probe MC540 was dissolved in methanol. Liposomes were prepared according to procedure described in Section 3.6.1. […] Fluorescence anisotropy for TMA-DPH and DPH was calculated using the following equation [64]:(5) A=I∥−GI⊥/I∥+2GI⊥ where I∥ and I⊥ are fluorescence intensities observed in directions parallel and perpendicular, respectively to the polarization plane of the exciting wave. […]
The fluorescence experiment was conducted using a Cary Eclipse fluorimeter (Varian, Palo Alto, CA, USA). […]

COX-2 = target: T1, COX-2 (Homo sapiens, UniProt P35354); test: Inhibition of cyclooxygenase 2 (spectrophotometric, TMPD); type: biochemical
T1 construct: purchased Sigma-Aldrich
T1 sequence (P35354 18-604): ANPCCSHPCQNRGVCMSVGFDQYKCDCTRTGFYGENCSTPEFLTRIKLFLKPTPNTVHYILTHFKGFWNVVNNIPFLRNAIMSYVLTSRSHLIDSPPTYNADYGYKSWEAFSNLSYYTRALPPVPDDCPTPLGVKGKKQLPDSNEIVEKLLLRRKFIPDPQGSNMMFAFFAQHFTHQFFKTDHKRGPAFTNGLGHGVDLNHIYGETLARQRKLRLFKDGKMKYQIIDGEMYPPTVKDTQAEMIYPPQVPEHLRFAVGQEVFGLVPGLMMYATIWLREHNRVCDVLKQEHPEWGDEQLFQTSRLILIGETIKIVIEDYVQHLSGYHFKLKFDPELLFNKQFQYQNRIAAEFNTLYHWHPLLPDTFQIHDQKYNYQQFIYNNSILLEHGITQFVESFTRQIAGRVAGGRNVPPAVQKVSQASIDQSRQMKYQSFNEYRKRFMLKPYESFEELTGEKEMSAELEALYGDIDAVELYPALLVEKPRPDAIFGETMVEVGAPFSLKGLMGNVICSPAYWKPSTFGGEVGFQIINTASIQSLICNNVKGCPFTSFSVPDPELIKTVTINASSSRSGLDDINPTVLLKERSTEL
Excerpt: The probes 1,6-diphenyl-1,3,5-hexatriene (DPH), 3-[p-(6-phenyl)-1,3,5-hexatrienyl]propionic acid (DPH-PA), Merocyanine 540 (MC540), and N,N,N-trimethyl-4-(6-phenyl-1,3,5-hexatrien-1-yl)phenylammonium p-toluenesulfonate (TMA-DPH) were purchased from Molecular Probes (Eugene, OR, USA). Tris (hydroxymethyl) aminomethane (Tris:HCl) were obtained from “Chempur” (Piekary Śląskie, Poland). Quercetin (Q) was purchased from Sigma-Aldrich.
This experiment, established on the basis of a modified method given in the work by Jang and Pezzuto [68], was conducted by a spectrophotometric measurement of inhibition of the cyclooxygenases’ activity COX-1 and COX-2. […] To initiate the reaction, arachidonic acid was added at a concentration of 35 mM. The final volume of the sample was 1 mL. […] The measurements were carried out at room temperature. The control sample contained the right amount of solvent (methanol) instead of the studied compounds. […] The experiment was performed in five replicates (n = 5).

IC50 (COX-2; Tris-HCl pH 8.0, room temperature, read-out: IC50 COX-2) [µM] | Structure (SMILES) | reduction in intensity of the MC540 probe's fluorescence [1] | relative changes in anisotropy in the probe TMA-DPH [1] | IC50 (COX-2) [µM]
– | O=c1c(O)c(-c2ccc(O)c(O)c2)oc2cc(O)cc(O)c12 [Quercetin, 3,3′,4′,5,7-pentahydroxyflavone] | 29–56% | 16–37% | 17 ± 2.43
49.2 ± 5.55 | CO[C@H]1[C@H](O)[C@@H](O)[C@H](Oc2cc(O)c3c(=O)c(O)c(-c4ccc(O)c(O)c4)oc3c2)O[C@@H]1CO [Q 7-MeGlu, quercetin 7-O-β-D-(4″-O-methyl)glucopyranoside] | – | 5–10% | –
